Publication PMC6934657, “Transdermal delivery of nobiletin using ionic liquids” (Scientific Reports, 2019)
Converted amounts (≈) assume the structure as drawn.

Legend:
[1] = Measurement of NOB solubility in CAGE; format: physicochemical; conditions: shaken at 37 °C for 48 h, HPLC
Method: An excess amount of NOB was added to CAGE in test tubes and the tubes were shaken at 37 °C for 48 h. The supernatants were then collected and filtered through a filter with a pore size of 0.20 µm (Toyo Roshi Co. Ltd., Tokyo, Japan), and the concentration of NOB was determined by high-pressure liquid chromatography (HPLC) (Shimadzu LC-2010C, Kyoto, Japan) with the following conditions: mobile phase 0.1% formic acid in water (solvent A) and acetonitrile (solvent B) (0–20 min, 52.5–75% solvent A); flow rate 1 mL/min; injection volume 5 µL; column Develosil ODS-HG-5, 4.6 mm × 150 mm, 5 µm particle size; column temperature 40 °C; UV detector wavelength 285 nm.

[2] = In vitro skin penetration test using Franz diffusion cell; format: in vitro ADME, Yucatan micropig; conditions: 24 h
Method: Porcine skin stored at −70 °C was thawed at 37 °C for 30 min, and then cut into a circle 3.5 cm in diameter. The adipose tissue of this skin was scraped off with a razor. The skin was sandwiched between the acceptor side of a Franz diffusion cell (FDC) (PermeGear, Hellertown, PA, USA) filled with phosphate buffered saline (PBS) solution, and the donor of the FDC, and both sides of the FDC were fixed with a clip. The skin was stretched without wrinkles and the acceptor was degassed. Then, 300 μL of 1, 2, 5, 7, and 10 mg/mL NOB/PBS or NOB/CAGE were added to the donor and incubated for 24 h at 37 °C. After incubation, samples in the donor were removed and the skin was washed up to 5 times with PBS solution. The skin was removed from the FDC and punched out according to the administration area. A tape stripping method was used with ten tapes to obtain parts of the stratum corneum (SC). The remaining epidermis was scraped with a razor and separated from the dermis. NOB was eluted from these tissue samples using methanol: PBS = 1:1 for 24 h. The solutions were centrifuged at 3,000 rpm at 25 °C for 3 min and the supernatant was passed through a membrane filter (pore size: 0.20 µm, Toyo Roshi Co. Ltd.). The amount of NOB in the SC, epidermis, dermis, and acceptor was quantitatively determined by HPLC as described in Section 2.1.2. […] To compare the permeation ability of CAGE with other skin permeation reagents, additional 24-h transdermal tests were performed using 1 mg/mL NOB/diethylene glycol monoethyl ether (DGME): PBS = 1:1 (v:v) and NOB/ethanol (EtOH): […]

[3] = system: blood glucose level; experiment: Hypoglycemic activity after transdermal administration to SD rats; format: in vivo; conditions: transdermal with CAGE, 10 mg/kg
Method: The hypoglycemic activity of the NOB/CAGE sample was evaluated following the same protocol used for the transdermal tests in vivo using SD rats as described in Section 2.4. A 5 mg/mL solution of PBS, NOB/PBS, or NOB/CAGE was transdermally administered to the donor area of the rats (10 mg/kg) and blood was collected from the tail vein after 1, 2, 4, 8, 12, and 24 h. Blood glucose was measured using a commercial glucose meter (ACCU-CHEK® ST Meter, ACCU-CHEK® ST Strip, Roche Diagnostics K.K., Tokyo, Japan) (n = 5).

[4] = cited from earlier work
[5] = cited from earlier work; remark: listed apart in the source
[6] = design: method as in PMID 27076076; conditions: oral, 200 mg/kg; cited from earlier work
[7] = design: method as in PMID 30682442; conditions: cited from earlier work
[8] = design: method as in doi:10.2525/ecb.56.161, PMID 18951932; conditions: cited from earlier work
[9] = system: blood glucose level; design: method as in PMID 28337858; conditions: transdermal insulin delivery using CAGE; cited from earlier work

COc1ccc(-c2cc(=O)c3c(OC)c(OC)c(OC)c(OC)c3o2)cc1OC [NOB, Nobiletin]
solubility at 48 h [1]: 7200 µg/mL (≈ 17.9 mM)
Ratio of NOB in deeper fractions (epidermis + dermis + acceptor) to total NOB transferred to the skin ([2]; 1 mg/mL NOB in 50:50 (v:v) DGME: PBS): 41%
Ratio of NOB in deeper fractions (epidermis + dermis + acceptor) to total NOB transferred to the skin ([2]; 1 mg/mL NOB in 50:50 (v:v) EtOH: PBS): 54%
Ratio of NOB in deeper fractions (epidermis + dermis + acceptor) to total NOB transferred to the skin ([2]; 1 mg/mL NOB in CAGE): 77%
Ratio of NOB in deeper fractions (epidermis + dermis + acceptor) to total NOB transferred to the skin ([2]; 1 mg/mL NOB in PBS): 28%
Order of amount of NOB detected in the acceptor by solvent ([2]; 1 mg/mL NOB): CAGE > EtOH: PBS > PBS > DGME
Decrease in the blood glucose level over 12 h [3]: at most 34%
Solubility of NOB in water ([4]; in water, ref Onoue et al.[11]): 16 µg/mL
Water solubility ([4]; ref 14 (Fig. 1: Onoue et al.[11])): 16.2 µg/mL
Oral bioavailability in rat ([5]; oral administration of NOB crystals to rats, ref 14 (Fig. 1: Onoue et al.[11])): 0.85%
Blood glucose level accompanied with insulin injection [6]: caused a drop in the BGL
Weight gain [6]: significantly suppressed weight gain

COc1ccc(-c2cc(=O)c3c(OC)c(OC)c(OC)c(OC)c3o2)cc1OC [crystalline NOB, Nobiletin]
Oral BA of crystalline NOB ([5]; oral, 2 mg/kg): 0.46%

O=c1c(O)c(-c2ccc(O)cc2)oc2cc(O)cc(O)c12 [kaempferol, reference compound]
Solubility in water [4]: 180 µg/mL (≈ 0.629 mM)
BA [7]: 2%

O=c1c(O)c(-c2ccc(O)c(O)c2)oc2cc(O)cc(O)c12 [quercetin, reference compound]
Solubility in water [4]: 1.4 µg/mL (≈ 0.00463 mM)
BA in men [8]: 1%

insulin
Drop in the blood glucose level over 12 h [9]: ~40%
